20 molecules from US20240083853A1, “HSD17B13 INHIBITORS AND USES THEREOF” (FL2022-001, Inc., priority 2020, published 2024) can be followed below.

Bounds are passed on as bounds.

The experiment deals with T1, Recombinant human HSD17B13 enzyme (Homo sapiens, UniProt Q7Z5P4).
T1 sequence (Q7Z5P4 20-300): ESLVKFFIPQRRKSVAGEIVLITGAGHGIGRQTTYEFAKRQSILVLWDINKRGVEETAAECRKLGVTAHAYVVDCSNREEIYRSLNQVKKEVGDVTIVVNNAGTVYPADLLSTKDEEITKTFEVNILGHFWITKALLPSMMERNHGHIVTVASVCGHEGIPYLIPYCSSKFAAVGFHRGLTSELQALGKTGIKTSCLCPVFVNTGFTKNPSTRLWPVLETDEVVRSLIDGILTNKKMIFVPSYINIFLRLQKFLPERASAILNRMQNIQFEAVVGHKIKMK
In words: HSD17b13 NAD(P)H-Glo biochemical assay. The note with it: 50 uM estradiol, 1 mM NAD+, NAD(P)H-Glo luminescence; read-out: HSD17β13 IC50. In short, it runs like this:
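Recombinant human HSD17B13 in 20 mM Tris pH7.4 with 0.002% Tween-20 and 0.02% BSA was preincubated with inhibitor for 20 minutes at RT. The reaction ran 3 hours at 37° C with 50 uM estradiol and 1 mM NAD+ (final). NADH formed was detected by NAD(P)H-Glo luminescence after 1 hour at RT.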

On to `Oc1cc2c(cnn2-c2ccc(Nc3ccccc3)cc2)cc1F` [Compound 3, 5-Fluoro-1-(4-(phenylamino)phenyl)-1H-indazol-6-ol], for which the concentration for half-maximal inhibition (IC50) was 100 to 1000 nM. Consider `CCC1(C)CCN(c2ccc(-n3ncc4cc(F)c(O)c(F)c43)cc2)CC1` [Compound 24.5, 1-(4-(4-Ethyl-4-methylpiperidin-1-yl)phenyl)-5,7-difluoro-1H-indazol-6-ol], for which the IC50 is less than 100 nM. `CC1(C)CCCN(c2ccc(-n3ncc4cc(F)c(O)c(F)c43)cc2)C1` [Compound 23.19, 1-(4-(3,3-Dimethylpiperidin-1-yl)phenyl)-5,7-difluoro-1H-indazol-6-ol]: the IC50 was less than 100 nM.

Turning to `CC1(C)CCN(c2ccc(N3C(=O)C(C)(C)c4cc(F)c(O)c(F)c43)cc2)CC1` [Compound 34, 1-(4-(4,4-Dimethylpiperidin-1-yl)phenyl)-5,7-difluoro-6-hydroxy-3,3-dimethylindolin-2-one], the half-inhibitory concentration (IC50) lay in the range of 1000 to 30000 nM. As to `Oc1c(F)cc2nnn(-c3ncc(N4CC5(CCOCC5)C4)cn3)c2c1F` [Compound 26.21, 1-(5-(7-Oxa-2-azaspiro[3.5]nonan-2-yl)pyrimidin-2-yl)-5,7-difluoro-1H-benzo[d][1,2,3]triazol-6-ol], the half-inhibitory concentration (IC50) was 100 to 1000 nM.

Take `CS(=O)(=O)c1cccc(-c2ccc(-n3ncc4cc(F)c(O)cc43)cc2)c1` [Compound 13.25, 5-Fluoro-1-(3′-(methylsulfonyl)-[1,1′-biphenyl]-4-yl)-1H-indazol-6-ol]: the half-inhibitory concentration (IC50) is 100 to 1000 nM. The value for `Oc1cccc(-c2ccc(-n3ncc4cc(F)c(O)c(Cl)c43)cc2)c1` [Compound 17, 7-Chloro-5-fluoro-1-(3′-hydroxy-[1,1′-biphenyl]-4-yl)-1H-indazol-6-ol] was 100 to 1000 nM; that for `Oc1cc2c(nnn2-c2ccc(N3CC4(CCOCC4)C3)cc2)c(F)c1F` [Compound 40.3, 1-(4-(7-oxa-2-azaspiro[3.5]nonan-2-yl)phenyl)-4,5-difluoro-1H-benzo[d][1,2,3]triazol-6-ol] was 100 to 1000 nM; that for `Oc1c(F)cc2cnn(-c3ccc(N4CCSCC4)cc3)c2c1F` [Compound 23.4, 5,7-Difluoro-1-(4-thiomorpholinophenyl)-1H-indazol-6-ol] was less than 100 nM. The value for `Oc1cccc(-c2ccc(-n3ncc4cc(Cl)c(O)cc43)cc2)c1` [Compound 2.6, 5-Chloro-1-(3′-hydroxy-[1,1′-biphenyl]-4-yl)-1H-indazol-6-ol] was 1000 to 30000 nM; that for `CC(C)S(=O)(=O)N1CCN(c2ccc(-n3ncc4cc(F)c(O)c(F)c43)cc2)CC1` [Compound 23.9, 5,7-Difluoro-1-(4-(4-(isopropylsulfonyl)piperazin-1-yl)phenyl)-1H-indazol-6-ol] was 100 to 1000 nM; that for `CC1(C)CCN(c2ccc(-n3nnc4c(F)c(F)c(O)cc43)cc2)CC1` [Compound 40.2, 1-(4-(4,4-Dimethylpiperidin-1-yl)phenyl)-4,5-difluoro-1H-benzo[d][1,2,3]triazol-6-ol] was 100 to 1000 nM. For the molecule `CC1(C)CN(c2ccc(-n3ncc4cc(F)c(O)c(F)c43)cc2)C1` [Compound 23.13, 1-(4-(3,3-Dimethylazetidin-1-yl)phenyl)-5,7-difluoro-1H-indazol-6-ol], the IC50 is less than 100 nM. Consider `Oc1cccc(-c2ccc(-n3ncc4c(Cl)c(F)c(O)cc43)cc2)c1` [Compound 5, 4-Chloro-5-fluoro-1-(3′-hydroxy-[1,1′-biphenyl]-4-yl)-1H-indazol-6-ol], for which the half-maximal inhibitory concentration (IC50) was 100 to 1000 nM. The value for `CS(=O)(=O)C1CN(c2ccc(-n3cnc4cc(F)c(O)c(F)c43)cc2)C1` [Compound 20.15, 5,7-Difluoro-1-(4-(3-(methylsulfonyl)azetidin-1-yl)phenyl)-1H-benzo[d]imidazol-6-ol] was 1000 to 30000 nM.

With `Oc1c(F)cc2nnn(-c3cnc(N4CC5(CCOCC5)C4)nc3)c2c1F` [Compound 42.1, 1-(2-(7-Oxa-2-azaspiro[3.5]nonan-2-yl)pyrimidin-5-yl)-5,7-difluoro-1H-benzo[d][1,2,3]triazol-6-ol], the IC50 was in the range of 1000 to 30000 nM.

Consider `CS(=O)(=O)N1CCN(c2ncc(-n3ncc4cc(F)c(O)c(F)c43)cn2)CC1` [Compound 7, 5,7-Difluoro-1-(2-(4-(methylsulfonyl)piperazin-1-yl)pyrimidin-5-yl)-1H-indazol-6-ol], for which the half-maximal inhibitory concentration (IC50) fell in the range of 100 to 1000 nM. `CCC1(C)CN(c2ccc(-n3ncc4cc(F)c(O)c(F)c43)cc2)C1` [Compound 24.4, 1-(4-(3-Ethyl-3-methylazetidin-1-yl)phenyl)-5,7-difluoro-1H-indazol-6-ol]: the 50% inhibitory concentration (IC50) was less than 100 nM.

As to `Oc1c(F)cc2cnn(-c3ccc(N4CCCC4)cc3)c2c1F` [Compound 23.10, 5,7-Difluoro-1-(4-(pyrrolidin-1-yl)phenyl)-1H-indazol-6-ol], the IC50 is less than 100 nM. The value for `N#Cc1ccc(-c2ccc(-n3ncc4cc(F)c(O)c(F)c43)cc2)cc1` [Compound 13.39, 4′-(5,7-Difluoro-6-hydroxy-1H-indazol-1-yl)-[1,1′-biphenyl]-4-carbonitrile] was less than 100 nM.
